What was measured:
Type in all cases: in vivo
[1] = test system: Veronica persica; test: greenhouse pre-emergence trial, percent damage vs untreated control 21 days after treatment; conditions: VERPE, Example 1A
[2] = test system: Setaria viridis; test: as above; conditions: SETVI, Example 1A
[3] = test system: Lolium perenne; test: as above; conditions: 60 g/ha, LOLPE, Example 1A
[4] = test system: Lamium purpureum; test: as above; conditions: LAMPU, Example 1A
[5] = test system: Alopecurus myosuroides; test: as above; conditions: ALOMY; for JV 485 alone (% control): Example 3
[6] = test system: Galium aparine; test: as above; conditions: GALAP; for JV 485 alone (% control): Example 3
[7] = test system: Stellaria media; test: as above; conditions: 60 g/ha, STEME, Example 1A
[8] = test system: Lamium purpureum; test: greenhouse post-emergence trial, percent damage vs untreated control 21 days after treatment; conditions: LAMPU; for MCPA alone (% control): Example 4; for clodinafop alone (% control): Example 12; for ioxynil alone (% control): Example 8; for mecoprop alone (% control): Example 7
Procedure: (§1) The trials are carried out under greenhouse conditions in pre- and post-emergence applications. The plant seeds are sown in pots containing a loamy sand soil (0.5 l). The herbicides are applied as single treatments, or in a combination comprising a compound of formula I and compound selected from group (2) as defined above, before or after emergence of weeds and crop. The herbicidal performance is assessed as percent damage in comparison to the untreated control plants. The assessment is done 21 days after the treatment. Wheat and barley are treated at the 3-4 leaf stage, the broad-leaf weeds at the 2-4 leaf stage and annual grasses at the 2-3 leaf stage.

[9] = test system: Stellaria media; test: as above; conditions: STEME; for fenoxaprop alone (% control): Example 13
Procedure: as §1

[10] = test system: Papaver rhoeas; test: as above; conditions: PAPRH, Example 1B
Procedure: as §1

[11] = test system: Lolium perenne; test: as above; conditions: LOLPE; for MCPA alone (% control): Example 4; for fenoxaprop alone (% control): Example 13; for mecoprop alone (% control): Example 7
Procedure: as §1

[12] = test system: Veronica persica; test: as above; conditions: VERPE, Example 1B
Procedure: as §1

[13] = test system: Apera spica-venti; test: as above; conditions: APESV; for cinidon-ethyl alone (% control): Example 10; for clodinafop alone (% control): Example 12; for mecoprop alone (% control): Example 7; for pendimethalin alone (% control): Example 14
Procedure: as §1

[14] = test system: Setaria viridis; test: as above; conditions: SETVI; for IPU alone (% control): Example 1B; for MCPA alone (% control): Example 4; for carfentrazone alone (% control): Example 9; for cinidon-ethyl alone (% control): Example 10; for flupyrsulfuron alone (% control): Example 5
Procedure: as §1

[15] = test system: Alopecurus myosuroides; test: as above; conditions: ALOMY; for IPU alone (% control): Example 1B; for MCPA alone (% control): Example 4; for fenoxaprop alone (% control): Example 13; for flupyrsulfuron alone (% control): Example 5; for pendimethalin alone (% control): Example 14
Procedure: as §1

[16] = test system: Papaver rhoeas; test: greenhouse pre-emergence trial, percent damage vs untreated control 21 days after treatment; conditions: 60 g/ha, PAPRH, Example 1A
[17] = test system: Matricaria inodora; test: greenhouse post-emergence trial, percent damage vs untreated control 21 days after treatment; conditions: MATIN; for carfentrazone alone (% control): Example 9; for cinidon-ethyl alone (% control): Example 10
Procedure: as §1

[18] = test system: Galium aparine; test: as above; conditions: GALAP; for clodinafop alone (% control): Example 12; for flupyrsulfuron alone (% control): Example 5
Procedure: as §1

With CC(C)c1ccc(NC(=O)N(C)C)cc1 [IPU] the “IPU alone (% control)” value ([1]; 60 g/ha) was 0%, the “IPU alone (% control)” value ([1]; 120 g/ha) was 0% and the “IPU alone (% control)” value ([1]; 240 g/ha) was 0%. For the same molecule, the “IPU alone (% control)” value ([2]; 60 g/ha) was 0%, the “IPU alone (% control)” value ([2]; 120 g/ha) was 20% and the “IPU alone (% control)” value ([2]; 240 g/ha) was 65%. The “IPU alone (% control)” value [3] was 40%, the “IPU alone (% control)” value ([4]; 60 g/ha) was 0% and the “IPU alone (% control)” value ([4]; 120 g/ha) was 15%. For the same molecule, the “IPU alone (% control)” value ([4]; 240 g/ha) was 70%, the “IPU alone (% control)” value ([5]; 60 g/ha, Example 1A) was 43% and the “IPU alone (% control)” value ([6]; 120 g/ha, Example 1A) was 0%. For the same molecule, the “IPU alone (% control)” value [7] was 15%, the “IPU alone (% control)” value ([8]; 60 g/ha, Example 1B) was 0% and the “IPU alone (% control)” value ([9]; 60 g/ha, Example 1B) was 25%. The “IPU alone (% control)” value ([10]; 60 g/ha) was 0%, the “IPU alone (% control)” value ([10]; 120 g/ha) was 25% and the “IPU alone (% control)” value ([10]; 240 g/ha) was 48%. The “IPU alone (% control)” value ([11]; 60 g/ha, Example 1B) was 38%, the “IPU alone (% control)” value ([12]; 60 g/ha) was 15% and the “IPU alone (% control)” value ([12]; 240 g/ha) was 5%. For the same molecule, the “IPU alone (% control)” value ([13]; 60 g/ha, Example 1B) was 50%, the “IPU alone (% control)” value ([14]; 60 g/ha) was 15% and the “IPU alone (% control)” value ([14]; 120 g/ha) was 40%. The “IPU alone (% control)” value ([15]; 60 g/ha) was 15%, the “IPU alone (% control)” value ([15]; 120 g/ha) was 38% and the “IPU alone (% control)” value [16] was 0%.
CC(C)OC(=O)c1cc(-c2nn(C)c(C(F)(F)F)c2Br)c(F)cc1Cl [JV 485, isopropyl 2-chloro-4-fluoro-5-(4-bromo-1-methyl-6-trifluoromethyl-pyrazol-3-yl)-benzoate, reference compound] was tested, and the “JV 485 alone (% control)” value ([5]; 30 g/ha) was 10%, the “JV 485 alone (% control)” value ([5]; 60 g/ha) was 25% and the “JV 485 alone (% control)” value ([5]; 120 g/ha) was 65%. For the same molecule, the “JV 485 alone (% control)” value ([6]; 60 g/ha) was 0% and the “JV 485 alone (% control)” value ([6]; 120 g/ha) was 63%.
Cc1cc(Cl)ccc1OCC(=O)O [MCPA, reference compound] was tested, and the “MCPA alone (% control)” value ([8]; 120 g/ha) was 0%, the “MCPA alone (% control)” value ([8]; 240 g/ha) was 0% and the “MCPA alone (% control)” value ([8]; 480 g/ha) was 13%. The “MCPA alone (% control)” value ([9]; 480 g/ha, Example 4) was 65%, the “MCPA alone (% control)” value ([11]; 120 g/ha) was 0% and the “MCPA alone (% control)” value ([11]; 240 g/ha) was 10%. For the same molecule, the “MCPA alone (% control)” value ([13]; 240 g/ha, Example 4) was 0%, the “MCPA alone (% control)” value ([14]; 120 g/ha) was 25% and the “MCPA alone (% control)” value ([14]; 240 g/ha) was 43%. For the same molecule, the “MCPA alone (% control)” value ([15]; 120 g/ha) was 0%, the “MCPA alone (% control)” value ([15]; 240 g/ha) was 0% and the “MCPA alone (% control)” value ([15]; 480 g/ha) was 0%.
Cc1nn(-c2cc(CC(Cl)C(=O)O)c(Cl)cc2F)c(=O)n1C(F)F (stereo not shown) [carfentrazone, reference compound] was tested, and the “carfentrazone alone (% control)” value ([9]; 1.88 g/ha, Example 9) was 0%, the “carfentrazone alone (% control)” value ([14]; 1.88 g/ha) was 0% and the “carfentrazone alone (% control)” value ([14]; 15 g/ha) was 0%. For the same molecule, the “carfentrazone alone (% control)” value ([17]; 1.88 g/ha) was 0% and the “carfentrazone alone (% control)” value ([17]; 15 g/ha) was 48%.
With CCOC(=O)C(Cl)=Cc1cc(N2C(=O)C3=C(CCCC3)C2=O)ccc1Cl [cinidon-ethyl, reference compound] the “cinidon-ethyl alone (% control)” value ([13]; 25 g/ha) was 0%, the “cinidon-ethyl alone (% control)” value ([13]; 50 g/ha) was 0% and the “cinidon-ethyl alone (% control)” value ([18]; 25 g/ha, Example 10) was 20%. The “cinidon-ethyl alone (% control)” value ([14]; 25 g/ha) was 0%, the “cinidon-ethyl alone (% control)” value ([14]; 50 g/ha) was 0% and the “cinidon-ethyl alone (% control)” value ([17]; 12.5 g/ha) was 53%. For the same molecule, the “cinidon-ethyl alone (% control)” value ([17]; 25 g/ha) was 68%.
For C[C@@H](Oc1ccc(Oc2ncc(Cl)cc2F)cc1)C(=O)O [clodinafop, reference compound], the “clodinafop alone (% control)” value ([8]; 7.5 g/ha) was 0%, the “clodinafop alone (% control)” value ([8]; 15 g/ha) was 0% and the “clodinafop alone (% control)” value ([11]; 15 g/ha, Example 12) was 65%. For the same molecule, the “clodinafop alone (% control)” value ([13]; 15 g/ha) was 0%, the “clodinafop alone (% control)” value ([13]; 30 g/ha) was 15% and the “clodinafop alone (% control)” value ([18]; 7.5 g/ha) was 0%. For the same molecule, the “clodinafop alone (% control)” value ([18]; 15 g/ha) was 0%, the “clodinafop alone (% control)” value ([18]; 30 g/ha) was 0% and the “clodinafop alone (% control)” value ([15]; 7.5 g/ha, Example 12) was 10%.
With CC(Oc1ccc(Oc2nc3ccc(Cl)cc3o2)cc1)C(=O)O (stereo not shown) [fenoxaprop, reference compound] the “fenoxaprop alone (% control)” value ([9]; 30 g/ha) was 0%, the “fenoxaprop alone (% control)” value ([9]; 60 g/ha) was 0% and the “fenoxaprop alone (% control)” value ([11]; 15 g/ha) was 3%. For the same molecule, the “fenoxaprop alone (% control)” value ([11]; 60 g/ha) was 43%, the “fenoxaprop alone (% control)” value ([13]; 30 g/ha, Example 13) was 58% and the “fenoxaprop alone (% control)” value ([15]; 15 g/ha) was 0%. The “fenoxaprop alone (% control)” value ([15]; 30 g/ha) was 0% and the “fenoxaprop alone (% control)” value ([17]; 30 g/ha, Example 13) was 0%.
COc1cc(OC)nc(NC(=O)NS(=O)(=O)c2nc(C(F)(F)F)ccc2C(=O)O)n1 [flupyrsulfuron, reference compound] was tested, and the “flupyrsulfuron alone (% control)” value ([11]; 10 g/ha, Example 5) was 10%, the “flupyrsulfuron alone (% control)” value ([13]; 2.5 g/ha, Example 5) was 0% and the “flupyrsulfuron alone (% control)” value ([18]; 5 g/ha) was 0%. The “flupyrsulfuron alone (% control)” value ([18]; 10 g/ha) was 0%, the “flupyrsulfuron alone (% control)” value ([14]; 2.5 g/ha) was 0% and the “flupyrsulfuron alone (% control)” value ([14]; 5 g/ha) was 10%. For the same molecule, the “flupyrsulfuron alone (% control)” value ([14]; 10 g/ha) was 10%, the “flupyrsulfuron alone (% control)” value ([15]; 2.5 g/ha) was 35% and the “flupyrsulfuron alone (% control)” value ([15]; 5 g/ha) was 53%. The “flupyrsulfuron alone (% control)” value ([15]; 10 g/ha) was 73%.
With N#Cc1cc(I)c(O)c(I)c1 [ioxynil] the “ioxynil alone (% control)” value ([8]; 60 g/ha) was 0%, the “ioxynil alone (% control)” value ([8]; 120 g/ha) was 15% and the “ioxynil alone (% control)” value ([8]; 240 g/ha) was 28%. The “ioxynil alone (% control)” value ([11]; 240 g/ha, Example 8) was 0% and the “ioxynil alone (% control)” value ([13]; 120 g/ha, Example 8) was 0%.
For Cc1cc(Cl)ccc1OC(C)C(=O)O (stereo not shown) [mecoprop, reference compound], the “mecoprop alone (% control)” value ([8]; 240 g/ha) was 10%, the “mecoprop alone (% control)” value ([8]; 480 g/ha) was 48% and the “mecoprop alone (% control)” value ([11]; 240 g/ha) was 0%. For the same molecule, the “mecoprop alone (% control)” value ([11]; 480 g/ha) was 0%, the “mecoprop alone (% control)” value ([11]; 960 g/ha) was 0% and the “mecoprop alone (% control)” value ([13]; 240 g/ha) was 0%. The “mecoprop alone (% control)” value ([13]; 480 g/ha) was 0% and the “mecoprop alone (% control)” value ([13]; 960 g/ha) was 0%.
For CCC(CC)Nc1c([N+](=O)[O-])cc(C)c(C)c1[N+](=O)[O-] [pendimethalin, reference compound], the “pendimethalin alone (% control)” value ([13]; 120 g/ha) was 5%, the “pendimethalin alone (% control)” value ([13]; 240 g/ha) was 40% and the “pendimethalin alone (% control)” value ([18]; 120 g/ha, Example 14) was 23%. For the same molecule, the “pendimethalin alone (% control)” value ([14]; 480 g/ha, Example 14) was 40%, the “pendimethalin alone (% control)” value ([15]; 120 g/ha) was 0% and the “pendimethalin alone (% control)” value ([15]; 240 g/ha) was 15%.
CCS(=O)(=O)c1nc2ccccn2c1S(=O)(=O)NC(=O)Nc1nc(OC)cc(OC)n1 [sulfosulfuron, reference compound] was tested, and the “sulfosulfuron alone (% control)” value ([11]; 3.75 g/ha, Example 6) was 18%.
